This is an account of results in patent publication US10689346B2, “Human plasma kallikrein inhibitors” (BioCryst Pharmaceuticals, Inc., priority 2014, dated 2020).

What is called Ki is the dissociation constant of the complex between target and ligand, obtained from inhibition or displacement.

For data set [1], the system named is middle cerebral artery occlusion (MCAO). Conditions: mouse model of MCAO; cited from earlier work.
The next data set deals with sepsis. Conditions: sepsis patients; cited from earlier work.
Data set [2] has as its system LPS- or bacterial-induced sepsis. Conditions: LPS- or bacterial-induced sepsis in animals; cited from earlier work.
Data set [3] concerns hereditary angioedema (HAE). The note with it: cited from earlier work.
A further data set relates to ischemic stroke. Conditions: animal model of ischemic stroke; cited from earlier work.
In a further data set the target is human plasma kallikrein (Homo sapiens (Human), UniProt P03952). The data set is described as follows: Plasma Kallikrein Activity Assay. The format is biochemical.
Sequence of human plasma kallikrein (P03952 whole entry, looked up): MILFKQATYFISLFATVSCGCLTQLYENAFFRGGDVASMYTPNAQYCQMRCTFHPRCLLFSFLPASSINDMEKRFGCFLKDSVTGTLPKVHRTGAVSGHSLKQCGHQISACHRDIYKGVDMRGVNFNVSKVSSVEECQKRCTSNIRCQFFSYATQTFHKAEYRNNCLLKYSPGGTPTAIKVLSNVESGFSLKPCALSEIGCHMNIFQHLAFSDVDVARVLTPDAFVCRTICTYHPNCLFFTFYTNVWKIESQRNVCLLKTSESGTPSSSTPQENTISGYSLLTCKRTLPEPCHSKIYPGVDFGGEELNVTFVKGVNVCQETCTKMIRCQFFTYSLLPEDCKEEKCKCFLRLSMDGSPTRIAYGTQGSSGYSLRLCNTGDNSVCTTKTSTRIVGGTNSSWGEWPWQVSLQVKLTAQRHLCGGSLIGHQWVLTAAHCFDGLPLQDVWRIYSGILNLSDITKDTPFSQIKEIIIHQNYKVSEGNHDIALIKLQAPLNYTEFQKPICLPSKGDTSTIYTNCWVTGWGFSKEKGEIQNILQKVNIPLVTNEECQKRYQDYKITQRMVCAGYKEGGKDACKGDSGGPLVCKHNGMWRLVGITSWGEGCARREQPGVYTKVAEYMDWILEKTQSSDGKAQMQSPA
Sequence of human plasma kallikrein (P03952 whole entry partner, looked up): as the sequence (P03952 whole entry, looked up) above

Procedure for human plasma kallikrein: The effect of compounds of the invention on human plasma kallikrein activity was determined using the chromogenic substrates (DiaPharma Group, Inc., West Chester, Ohio, USA). In these experiments, 2 nM kallikrein (Enzyme Research Laboratories, South Bend, Ind., USA) was incubated with 80 μM S2302 (H-D-Pro-Phe-Arg-p-nitroaniline) in the absence or presence of increasing concentrations of compounds of the invention in a final volume of 200 μL Tris-HCl buffer (200 mM NaCl; 2.5 mM CaCl2; 50 mM Tris-HCl, pH 7.8).
Data were analyzed using SigmaPlot software (Systat Software, Inc., San Jose, Calif., USA) (Four Parameter Logistic Curve).

“C1-inhibitor: "a physiological inhibitor (C1-inhibitor)"; "reduced infarct size in a mouse model of middle cerebral artery occlusion" [Compound C1-inhibitor]”: in data set [1], the infarct size result is given as “reduced infarct size”. Further, in the data set on sepsis, the clinical improvement result is reported as “Clinical improvement was observed”. Besides, in data set [2], the lesions entry is “reduce lesions” and the “vascular permeability in multiple organs” value was “reduce vascular permeability”.

Turning to “H-D-Pro-Phe-Arg-chloromethylketone [H-D-Pro-Phe-Arg-chloromethylketone (CMK)]”, in data set [2], the lesions result is listed as “reduce lesions”.

Regarding `NC(N)=NCCC[C@@H](N)C(=O)N[C@@H](CCCN=C(N)N)C(=O)N1CCC[C@H]1C(=O)N1C[C@H](O)C[C@H]1C(=O)NCC(=O)N[C@@H](Cc1cccs1)C(=O)N[C@@H](CO)C(=O)N1Cc2ccccc2C[C@@H]1C(=O)N1[C@H](C(=O)N[C@@H](CCCN=C(N)N)C(=O)O)C[C@@H]2CCCC[C@@H]21` [Icatibant], in data set [3] (HAE), the “efficacy in treating HAE” value is “effective in treating HAE”.

In the case of ecallantide [DX-88], in data set [3] (patients with hereditary angioedema (HAE)), the edema entry is reported as “alleviates edema”. In addition, in the data set with ischemic stroke, the brain edema entry is recorded as “reduced”, the infarct volume result is given as “reduced” and the neurological deficits result is “reduced”.

In turn, `CN(C1CC1)C(c1cccc(N)c1)c1cccc(NC(=O)c2cc(C(F)(F)F)nn2-c2cccc(CN)c2)c1` (centres unmarked) [Compound 102b, 1-(3-(aminomethyl)phenyl)-N-(3-((3-aminophenyl)(cyclopropyl-methylamino)methyl)phenyl)-3-(trifluoromethyl)-1H-pyrazole-5-carboxamide] displayed an inhibition constant Ki on human plasma kallikrein of 0.1 to 50 nM.
